For 4 compounds, IC50 and EC50 results are on record in patent US11572362B2, “Pyrrolo[1,2-b]pyridazine derivatives” (Gilead Sciences, Inc., priority 2018, dated 2023).

Each structure is given as a SMILES string.

The target of one assay is IRAK4 (Homo sapiens (Human), UniProt Q9NWZ3). Kind of assay: IRAK4 Biochemical Assay (TR-FRET/HTRF). Particulars: IRAK4 enzyme 0.75 nM, 500 μM ATP, 2 μM STK1 peptide, 120 min. In outline: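 Recombinant IRAK4 (0.75 nM) with 2 µM STK1 peptide and 500 µM ATP in pH 7.0 HEPES/Mg buffer; compound preincubated 15 min with enzyme and peptide, then 120 min reaction at room temperature. HTRF readout: cryptate anti-phospho-peptide antibody, 665/615 nm ratio; % inhibition against no-inhibitor and saturating-staurosporine controls.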
Background: Time-resolved FRET reads energy transfer from a long-lived donor to a nearby acceptor.

Another assay concerns TNFα. The assay can be described thus: IRAK4 Monocyte TNFα Cell Based Assay. The following applies: cryopreserved human monocytes, 50 pg/ml LPS, compound 1 hour pre-treatment, 4 hours stimulation, TNFα by TR-FRET. The method in brief: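 Monocytes at 5,000 cells/well were pre-treated with compound for 1 h at 37 °C (0.1% DMSO final), then stimulated with 50 pg/ml LPS for 4 h. Secreted TNFα in supernatant was measured by TR-FRET (665/615 ratio), expressed as % control relative to unstimulated and stimulated cells.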

Chain of IRAK4 (Q9NWZ3 whole entry): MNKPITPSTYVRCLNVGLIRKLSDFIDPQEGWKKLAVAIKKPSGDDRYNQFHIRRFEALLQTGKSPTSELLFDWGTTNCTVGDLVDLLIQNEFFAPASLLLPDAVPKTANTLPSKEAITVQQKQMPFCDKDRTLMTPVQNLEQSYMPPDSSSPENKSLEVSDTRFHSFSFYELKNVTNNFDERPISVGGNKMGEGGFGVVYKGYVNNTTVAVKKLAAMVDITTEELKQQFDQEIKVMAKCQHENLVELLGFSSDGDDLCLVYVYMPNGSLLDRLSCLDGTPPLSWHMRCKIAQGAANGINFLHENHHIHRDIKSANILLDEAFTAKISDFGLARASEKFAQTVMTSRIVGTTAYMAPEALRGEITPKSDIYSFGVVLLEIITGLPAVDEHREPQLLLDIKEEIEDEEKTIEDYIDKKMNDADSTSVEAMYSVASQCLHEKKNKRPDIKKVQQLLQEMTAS

The term IC50 denotes the concentration needed to halve the response being measured. As a reminder, the EC50 is the concentration at which the effect is half-maximal. `CC(C)(O)[C@H](F)CNC(=O)c1cnc(-c2ccc3cc(C#N)cnn23)cc1NC12CCC(N3CCC(F)(F)CC3)(CC1)CC2` [Compound 68, (R)-6-(3-cyanopyrrolo[1,2-b]pyridazin-7-yl)-4-((4-(4,4-difluoropiperidin-1-yl)bicyclo[2.2.2]octan-1-yl)amino)-N-(2-fluoro-3-hydroxy-3-methylbutyl)nicotinamide] displayed an IC50 on IRAK4 of less than 1 nM. The EC50 with TNFα (Monocyte) is 38 nM.
In the case of `CC(C)(O)[C@H](F)CNC(=O)c1cnc(-c2ccc3cc(C#N)cnn23)cc1NC12CCC(N3CCOCC3=O)(CC1)CC2` [Compound 69, (R)-6-(3-cyanopyrrolo[1,2-b]pyridazin-7-yl)-N-(2-fluoro-3-hydroxy-3-methylbutyl)-4-((4-(3-oxomorpholino)bicyclo[2.2.2]octan-1-yl)amino)nicotinamide], on IRAK4, the IC50 was less than 1 nM. Besides, the EC50 with TNFα (Monocyte) was 15 nM.
The compound `CC(C)(O)[C@H](F)CNC(=O)c1cnc(-c2ccc3cc(C#N)cnn23)cc1N[C@H]1CC[C@H](c2nnn(C(F)F)n2)CC1` [Compound 72, 6-(3-cyanopyrrolo[1,2-b]pyridazin-7-yl)-4-(((1r,4R)-4-(2-(difluoromethyl)-2H-tetrazol-5-yl)cyclohexyl)amino)-N-((R)-2-fluoro-3-hydroxy-3-methylbutyl)nicotinamide] showed an IC50 at IRAK4 of 0.639 nM. Moreover, the EC50 in the assay on TNFα amounted to 31.3 nM.
Compound `CC(C)(O)[C@H](F)CNC(=O)c1cnc(-c2ccc3cc(C#N)cnn23)cc1N[C@H]1CC[C@H](c2nnc(C(F)F)o2)OC1` [Compound 74, 6-(3-cyanopyrrolo[1,2-b]pyridazin-7-yl)-4-(((3S,6R)-6-(5-(difluoromethyl)-1,3,4-oxadiazol-2-yl)tetrahydro-2H-pyran-3-yl)amino)-N-((R)-2-fluoro-3-hydroxy-3-methylbutyl)nicotinamide] yielded an IC50 at IRAK4 of 0.868 nM. In the assay with TNFα (Monocyte), the EC50 came out at 71.4 nM.
